Data on eleven molecules can be found in article PMC7394244 (Journal of medicinal chemistry, 2020).

For one series, the target named is hERG (Homo sapiens, UniProt Q12809). The series can be described thus: hERG IonWorks patch clamp electrophysiology. It is filed as cell-based. Background: Block of hERG is tested as a sign of cardiac risk.
The next series has as its target KV1.5 K+ (Homo sapiens, UniProt P22460). The series can be described thus: Potassium channel IonWorks patch clamp electrophysiology. It is filed as cell-based. On the technique in general: The patch-clamp technique gives a direct electrical read-out from membranes.
Series [1] can be described thus: Plasma protein binding. Conditions: human plasma. It is filed as in vitro ADME.
A short description of series [2]: Plasma protein binding. It is filed as in vitro ADME. Conditions: rat plasma.
A short description of series [3]: Plasma protein binding. It is filed as in vitro ADME. As to conditions: mouse plasma.
A short description of another series: Albumax medium binding. It is filed as in vitro ADME.
A short description of another series: Microsome binding. It is filed as in vitro ADME, human.
The nature of series [4]: Blood exposure in P. falciparum-infected SCID mice. It is filed as in vivo. Conditions: NOD-scidIL2Rγnull, mouse, whole blood, po.
A short description of a further series: in vivo. Conditions: male, Swiss outbred, mouse, plasma, iv.
In a further series the test system is Pf3D7 cells. The series can be described thus: P. falciparum 3D7 growth inhibition. It is filed as cell-based.
The next series addresses T1, PfDHODH (Plasmodium falciparum, UniProt Q08210).
T1 sequence (Q08210 24-569): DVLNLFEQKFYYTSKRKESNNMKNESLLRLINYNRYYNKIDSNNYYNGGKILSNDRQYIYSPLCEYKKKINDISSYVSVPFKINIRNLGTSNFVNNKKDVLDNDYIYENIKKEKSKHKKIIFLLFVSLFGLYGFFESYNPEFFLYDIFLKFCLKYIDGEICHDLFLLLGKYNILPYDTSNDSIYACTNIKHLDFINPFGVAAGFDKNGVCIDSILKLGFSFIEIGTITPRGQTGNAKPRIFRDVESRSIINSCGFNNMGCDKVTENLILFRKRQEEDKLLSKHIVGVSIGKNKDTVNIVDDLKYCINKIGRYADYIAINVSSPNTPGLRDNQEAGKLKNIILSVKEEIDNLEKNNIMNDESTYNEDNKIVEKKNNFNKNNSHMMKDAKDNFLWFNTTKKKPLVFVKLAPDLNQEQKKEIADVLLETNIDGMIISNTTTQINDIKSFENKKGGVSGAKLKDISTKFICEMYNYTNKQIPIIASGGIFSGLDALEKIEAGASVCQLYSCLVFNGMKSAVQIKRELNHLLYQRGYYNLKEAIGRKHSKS
The series can be described thus: biochemical. More on the design: species or system P. falciparum.

A further series concerns P. falciparum Dd2. As to conditions: read-out: EC50 Dd2 (parental); cited from earlier work.
For series [5] the following is noted: human liver microsomes; cited from earlier work.
The conditions of series [6]: mouse liver microsomes; cited from earlier work. (In general: Microsomes from liver hold many membrane-bound enzymes, among them those of drug oxidation.)
For series [7] the following is noted: rat liver microsomes; cited from earlier work.
For series [8] the following is noted: human plasma; cited from earlier work.
For series [9] the following is noted: rat plasma; cited from earlier work.
For series [10] the following is noted: mouse plasma; cited from earlier work.
For series [11] the following is noted: cited from earlier work.
For series [12] the following is noted: cited from earlier work. This is another data set of the same source.
The conditions of series [13]: cited from earlier work. The source holds these as a separate data set.
For series [14] the following is noted: cited from earlier work. This is another data set of the same source.
The test system of the next series is R10C1B. The series can be described thus: microbe, parasite or virus in culture. As to conditions: Plasmodium falciparum, read-out: EC50 R10C1B.
The next series relates to R1BC1A. The series can be described thus: microbe, parasite or virus in culture. As to conditions: Plasmodium falciparum, read-out: EC50 R1BC1A.
The next series has as its system R2B. The series can be described thus: microbe, parasite or virus in culture. As to conditions: Plasmodium falciparum, read-out: EC50 R2B.
A short description of series [15]: In vitro metabolism, mouse liver microsomes.
[16] abbreviates: Plasmodium falciparum, read-out: EC50 Pf3D7 cells.
[17] abbreviates: Plasmodium falciparum, read-out: potency on Pf3D7 parasites.

pEC50, pIC50: −log10 of the molar value. Several values for one entry are separate records, joined by “and”; a condition that tells them apart may be missing. Equal entries are not always repeated. Where two headings read alike, the source gives them in different places.

A word on the AUC(0-t): it is exposure summed from dosing to a finite time, without extrapolation to infinity. Low readings indicate low exposure, high ones high exposure. For orientation: Cmax means the maximum level reached in the sampled fluid or tissue. Broadly, the clearance is the volume of plasma or blood freed of the substance per unit of time. Low readings indicate inefficient removal, high ones efficient removal. Usually pIC50 stands for −log10 of the IC50, conventionally taken in molar units. The microsomal CLint is the rate of metabolic loss divided by the concentration. The low end stands for slow turnover, the high end for rapid turnover.

Sequence of KV1.5 K+ (P22460 whole entry): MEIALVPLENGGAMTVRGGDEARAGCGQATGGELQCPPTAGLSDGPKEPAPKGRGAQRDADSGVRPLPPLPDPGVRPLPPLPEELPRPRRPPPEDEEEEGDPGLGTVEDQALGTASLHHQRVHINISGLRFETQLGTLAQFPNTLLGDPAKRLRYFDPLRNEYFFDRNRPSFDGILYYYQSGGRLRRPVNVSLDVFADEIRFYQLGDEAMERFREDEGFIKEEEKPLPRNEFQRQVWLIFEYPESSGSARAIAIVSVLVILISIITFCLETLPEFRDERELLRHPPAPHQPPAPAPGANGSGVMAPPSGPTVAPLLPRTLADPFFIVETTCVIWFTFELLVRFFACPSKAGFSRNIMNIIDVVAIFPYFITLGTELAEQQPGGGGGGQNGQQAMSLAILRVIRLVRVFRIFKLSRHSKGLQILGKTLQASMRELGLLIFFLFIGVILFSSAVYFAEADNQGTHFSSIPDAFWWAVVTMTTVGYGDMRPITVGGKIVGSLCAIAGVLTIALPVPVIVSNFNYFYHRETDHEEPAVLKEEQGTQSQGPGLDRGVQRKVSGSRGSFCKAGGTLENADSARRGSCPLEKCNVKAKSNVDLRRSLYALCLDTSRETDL
Sequence of hERG (Q12809 whole entry): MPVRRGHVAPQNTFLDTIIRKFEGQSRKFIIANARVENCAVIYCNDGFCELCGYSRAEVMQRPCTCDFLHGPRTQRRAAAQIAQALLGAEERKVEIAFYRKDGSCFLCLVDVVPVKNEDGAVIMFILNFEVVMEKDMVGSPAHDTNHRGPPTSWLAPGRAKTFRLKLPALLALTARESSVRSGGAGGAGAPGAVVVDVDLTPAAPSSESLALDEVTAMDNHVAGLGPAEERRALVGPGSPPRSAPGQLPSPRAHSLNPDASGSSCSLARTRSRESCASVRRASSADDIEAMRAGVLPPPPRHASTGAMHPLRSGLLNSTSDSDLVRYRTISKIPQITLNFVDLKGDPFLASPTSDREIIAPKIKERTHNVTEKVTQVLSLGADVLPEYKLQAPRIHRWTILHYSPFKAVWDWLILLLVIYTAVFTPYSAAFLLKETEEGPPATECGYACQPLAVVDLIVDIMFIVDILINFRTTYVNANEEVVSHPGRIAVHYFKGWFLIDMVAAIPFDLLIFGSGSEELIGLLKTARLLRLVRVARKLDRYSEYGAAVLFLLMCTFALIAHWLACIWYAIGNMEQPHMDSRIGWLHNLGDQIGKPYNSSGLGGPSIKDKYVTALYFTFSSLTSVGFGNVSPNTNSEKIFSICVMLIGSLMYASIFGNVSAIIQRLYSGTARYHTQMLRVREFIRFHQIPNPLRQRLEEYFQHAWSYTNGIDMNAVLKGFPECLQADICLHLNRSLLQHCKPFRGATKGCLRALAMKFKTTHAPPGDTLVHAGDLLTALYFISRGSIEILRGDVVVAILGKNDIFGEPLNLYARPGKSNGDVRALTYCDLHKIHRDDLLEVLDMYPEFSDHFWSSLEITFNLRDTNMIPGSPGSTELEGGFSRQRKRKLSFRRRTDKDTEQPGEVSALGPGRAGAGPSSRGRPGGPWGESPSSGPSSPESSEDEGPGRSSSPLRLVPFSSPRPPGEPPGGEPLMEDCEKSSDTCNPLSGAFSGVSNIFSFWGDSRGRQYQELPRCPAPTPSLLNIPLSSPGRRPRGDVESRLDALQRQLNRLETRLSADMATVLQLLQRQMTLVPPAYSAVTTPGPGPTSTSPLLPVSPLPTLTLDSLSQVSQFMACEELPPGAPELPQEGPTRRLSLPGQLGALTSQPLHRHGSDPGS

On to `Cc1c(Cc2ccc(C(F)(F)F)nc2)c[nH]c1C(=O)NC1CC1` [Compound 37], for which the “Human Ion Channel activity hERG” value on hERG was over 33 µM. Besides, the “Human Ion Channel activity KV1.5 K+” value at KV1.5 K+ was over 11 µM. For the same molecule, in the series “Plasma protein binding [1]”, the “H plasma protein binding” value was 90 % bound. Moreover, the “R plasma protein binding” value in the series “Plasma protein binding [2]” is 88.2 % bound. Also, in the series “Plasma protein binding [3]”, the “M plasma protein binding” value was 88 % bound and 88.9 % bound. Also, the Albumax binding in “Albumax medium binding” was determined as 51.8 % bound. Also, the Microsome binding in the series “Microsome binding” is 29.9 % bound. Further, the AUC(0-t) in series [4] (10 mg/kg) was 680 ng·h/mL. Moreover, in series [4] (50 mg/kg), the AUC(0-t) was 8600 ng·h/mL and the maximum concentration (Cmax) came out at 2520 ng/mL. The clearance at 24 h in “in vivo” was determined as 26.1 mL/min/kg.
On to `CCOC(=O)c1[nH]c(C)c(Cc2ccc(OCC)cc2)c1C` [Compound 3, Ethyl 4-(4-ethoxybenzyl)-3,5-dimethyl-1H-pyrrole-2-carboxylate], for which the pEC50 was 6.64 with Pf3D7 cells (setting [16]) and 6.60 in the series on Pf3D7 cells (read-out: EC50 Pf3D7 cells).
The like results for `Cc1c(Cc2ccc(C(F)(F)F)nc2)c[nH]c1C(=O)NCC(F)(F)F` [Compound 39, 3-Methyl-N-(2,2,2-trifluoroethyl)-4-((6-(trifluoromethyl)pyridin-3-yl)methyl)-1H-pyrrole-2-carboxamide] were, in that order, 7.36 and 7.23.
`Cc1[nH]c(C(=O)NC2CCC2)c(C)c1Cc1ccc(C(F)(F)F)cn1` [Compound 25, N-Cyclobutyl-3,5-dimethyl-4-((5-(trifluoromethyl)pyridin-2-yl)methyl)-1H-pyrrole-2-carboxamide]: the figures for the pEC50 with Pf3D7 cells (setting [16]) and in the series with Pf3D7 cells (read-out: EC50 Pf3D7 cells) were 6.33 and 6.17, respectively.
Consider `Cc1[nH]c(C(=O)NC2CCC2)c(C)c1Cc1ccc(C(F)(F)F)nc1` [Compound 19, N-Cyclobutyl-3,5-dimethyl-4-((6-(trifluoromethyl)pyridin-3-yl)methyl)-1H-pyrrole-2-carboxamide], for which, at PfDHODH (IC50 PfDHODH), the pIC50 was 7.14 and 7.38.
Take `Cc1cc(Nc2ccc(S(F)(F)(F)(F)F)cc2)n2nc(C(C)(F)F)nc2n1` [Compound 1]: the pEC50 was 8.34 in the series on P. falciparum Dd2, 6.92 in the series on R10C1B, 7.10 in the series on R1BC1A and 7.13 in the series with R2B. The “H CLint” value in series [5] was <7 / <7 / <7 μL/min/mg. For the same molecule, the “M CLint” value in [6] is on record as <7 / <7 / <7 μL/min/mg. Also, the “R CLint” value in series [7] is reported as <7 / <7 / <7 μL/min/mg. Also, in [8], the “H plasma protein binding” value was 99.9 % bound. Besides, in series [9], the “R plasma protein binding” value is 97.0 % bound. Also, in series [10], the “M plasma protein binding” value is 99.7 % bound. In [11], the Albumax binding is given as 83.1 % bound. The Microsome binding in series [12] is on record as 71.7 % bound. For the same molecule, in series [13], the human half-life was ~ 100 hours. Also, the “Solubility FeSSIF (pH 5.8)” value in [14] was 27.6 μg/mL. For the same molecule, the intrinsic metabolic clearance (microsomal CLint) at 1 μM in series [15] came to 8 µL/min/mg.
As to `CCOC(=O)c1[nH]c(C)c(Cc2ccc(C(F)(F)F)cc2)c1C` [Compound 4, Ethyl 3,5-dimethyl-4-(4-(trifluoromethyl)benzyl)-1H-pyrrole-2-carboxylate], the pEC50 in the series with Pf3D7 cells (setting [16]) is 7.21; in the series with Pf3D7 cells (read-out: EC50 Pf3D7 cells), 7.15.
As for `Cc1[nH]c(C(=O)NC2CC2)c(C)c1Cc1ccc(C(F)(F)F)nc1` [Compound 18, N-Cyclopropyl-3,5-dimethyl-4-((6-(trifluoromethyl)pyridin-3-yl)methyl)-1H-pyrrole-2-carboxamide], the pEC50 in the series on Pf3D7 cells (setting [17]) was over 7.30.
For `CCNC(=O)c1[nH]c(C)c(Cc2ccc(C(F)(F)F)nc2)c1C` [Compound 16, N-Ethyl-3,5-dimethyl-4-((6-(trifluoromethyl)pyridin-3-yl)methyl)-1H-pyrrole-2-carboxamide], the pIC50 at PfDHODH (potency on PfDHODH) is over 7.30. The pEC50 in the series with Pf3D7 cells (setting [17]) is over 7.30.
Regarding `Cc1c(Cc2ccc(C(F)(F)F)cc2F)c[nH]c1C(=O)NC1CC1` [Compound 60, N-Cyclopropyl-4-(2-fluoro-4-(trifluoromethyl)benzyl)-3-methyl-1H-pyrrole-2-carboxamide], in the series on Pf3D7 cells (setting [17]), the pEC50 is over 7.52.
Still for that read-out and setting: with `Cc1c(Cc2ccc(C(F)(F)F)cc2Cl)c[nH]c1C(=O)NC1CC1` [Compound 66, 4-(2-chloro-4-(trifluoromethyl)benzyl)-N-cyclopropyl-3-methyl-1H-pyrrole-2-carboxamide] the figure was over 7.52.
